The source made the active and inactive calls.
What was measured:
Mucolipin-3 = target: T1, Mucolipin-3 (Homo sapiens, UniProt Q8TDD5); experiment: Dose response cell-based high-throughput screening assay for agonists of the transient receptor potential channel ML3 (TRPML3). [Related pubchem assays: 1526, 1424, 1448 ]; format: functional
T1 sequence (Q8TDD5 whole entry): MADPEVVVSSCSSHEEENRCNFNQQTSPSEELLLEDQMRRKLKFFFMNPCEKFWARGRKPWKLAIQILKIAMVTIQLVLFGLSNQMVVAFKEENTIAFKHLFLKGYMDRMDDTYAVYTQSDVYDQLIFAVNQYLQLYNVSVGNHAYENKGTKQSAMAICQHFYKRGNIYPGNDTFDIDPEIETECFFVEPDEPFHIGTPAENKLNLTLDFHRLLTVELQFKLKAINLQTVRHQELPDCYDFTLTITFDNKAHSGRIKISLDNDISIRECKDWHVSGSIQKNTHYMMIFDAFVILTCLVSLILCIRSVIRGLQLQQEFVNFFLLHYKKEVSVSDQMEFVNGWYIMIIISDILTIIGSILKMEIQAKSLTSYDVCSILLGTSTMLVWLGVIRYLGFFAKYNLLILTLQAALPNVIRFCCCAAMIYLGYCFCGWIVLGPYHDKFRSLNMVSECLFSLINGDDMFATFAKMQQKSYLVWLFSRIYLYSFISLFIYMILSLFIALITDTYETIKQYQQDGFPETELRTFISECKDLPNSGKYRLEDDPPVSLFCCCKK

Ion channel NompC = Ion channel NompC (Danio rerio, UniProt Q7T1G6); experiment: Fluorescence counterscreen assay for TRPML3 agonists: dose response cell-based high-throughput screening assay to identify agonists of the transient receptor potential channel N1 (TRPN1). [Related pubchem assays: 1526, 1424, 1448 ]; format: functional
[1] = Luminescence Cell-Based Dose Retest to Confirm Inhibitors of Cancer Stem Cells. [Related pubchem assays (depositor defined):AID2717, AID2721]; format: functional; conditions: Homo sapiens
[2] = target: Voltage-dependent T-type calcium channel subunit alpha-1H (Homo sapiens, UniProt O95180); format: functional;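 further: channel activity triggered by adding a high calcium stimulation buffer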
[3] = target: T2, Short transient receptor potential channel 4 (Mus musculus, UniProt Q9QUQ5); experiment: block of DAMGO-driven TRPC4 calcium entry – cell-based, HEK293 TRPC4/mu-opioid, Fluo-4 calcium, dose response (AID 434942); format: functional;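 further: potency of inhibitors blocking the TRPC4 calcium response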
T2 sequence (Q9QUQ5 whole entry): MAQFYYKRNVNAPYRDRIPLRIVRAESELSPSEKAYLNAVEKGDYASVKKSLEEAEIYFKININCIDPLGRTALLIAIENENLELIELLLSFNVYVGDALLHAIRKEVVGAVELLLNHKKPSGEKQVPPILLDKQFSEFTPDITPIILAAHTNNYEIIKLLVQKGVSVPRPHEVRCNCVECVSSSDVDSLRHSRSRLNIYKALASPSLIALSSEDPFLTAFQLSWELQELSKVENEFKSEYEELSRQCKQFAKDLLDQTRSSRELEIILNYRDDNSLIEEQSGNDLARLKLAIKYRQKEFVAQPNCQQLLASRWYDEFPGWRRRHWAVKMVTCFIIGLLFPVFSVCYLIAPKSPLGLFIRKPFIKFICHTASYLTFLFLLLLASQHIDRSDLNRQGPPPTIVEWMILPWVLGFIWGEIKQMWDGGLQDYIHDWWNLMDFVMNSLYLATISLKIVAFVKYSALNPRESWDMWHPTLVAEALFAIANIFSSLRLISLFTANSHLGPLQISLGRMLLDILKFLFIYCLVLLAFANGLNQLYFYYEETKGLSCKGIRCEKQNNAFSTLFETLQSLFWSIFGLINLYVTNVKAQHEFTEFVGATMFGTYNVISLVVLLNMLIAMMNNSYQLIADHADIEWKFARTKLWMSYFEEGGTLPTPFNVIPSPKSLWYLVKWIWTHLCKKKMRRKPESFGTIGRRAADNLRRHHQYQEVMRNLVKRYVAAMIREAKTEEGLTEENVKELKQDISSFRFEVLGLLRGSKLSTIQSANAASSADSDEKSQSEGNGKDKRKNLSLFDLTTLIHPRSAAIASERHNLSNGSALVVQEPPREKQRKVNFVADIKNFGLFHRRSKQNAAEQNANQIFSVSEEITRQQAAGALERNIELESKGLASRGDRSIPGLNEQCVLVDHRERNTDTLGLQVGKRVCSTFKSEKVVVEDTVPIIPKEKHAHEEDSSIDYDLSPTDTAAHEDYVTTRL

SUMO-activating enzyme = SUMO-activating enzyme (Homo sapiens, UniProt Q9UBT2); experiment: blockers of UBC9-mediated SUMO conjugation – biochemical, AlphaScreen, SUMOylation inhibitor project, confirmation (AID 2018); format: functional
X-box-binding protein 1 = target: T3, X-box-binding protein 1 (Homo sapiens, UniProt P17861); format: functional, Cricetulus griseus;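 further: confirmatory dose-response counter-screen serving a CHOP assay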
T3 sequence (P17861 whole entry): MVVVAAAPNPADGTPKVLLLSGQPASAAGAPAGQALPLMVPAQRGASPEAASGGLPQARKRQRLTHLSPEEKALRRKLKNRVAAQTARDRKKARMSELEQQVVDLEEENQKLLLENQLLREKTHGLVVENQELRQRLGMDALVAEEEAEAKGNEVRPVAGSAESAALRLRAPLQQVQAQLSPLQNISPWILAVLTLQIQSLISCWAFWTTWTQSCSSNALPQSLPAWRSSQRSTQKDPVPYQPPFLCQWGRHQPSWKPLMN
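Wherever AC50 is given: cells exposed to compound for roughly 70 hours or longer before luminescence read.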

Chain of Ion channel NompC (Q7T1G6 whole entry): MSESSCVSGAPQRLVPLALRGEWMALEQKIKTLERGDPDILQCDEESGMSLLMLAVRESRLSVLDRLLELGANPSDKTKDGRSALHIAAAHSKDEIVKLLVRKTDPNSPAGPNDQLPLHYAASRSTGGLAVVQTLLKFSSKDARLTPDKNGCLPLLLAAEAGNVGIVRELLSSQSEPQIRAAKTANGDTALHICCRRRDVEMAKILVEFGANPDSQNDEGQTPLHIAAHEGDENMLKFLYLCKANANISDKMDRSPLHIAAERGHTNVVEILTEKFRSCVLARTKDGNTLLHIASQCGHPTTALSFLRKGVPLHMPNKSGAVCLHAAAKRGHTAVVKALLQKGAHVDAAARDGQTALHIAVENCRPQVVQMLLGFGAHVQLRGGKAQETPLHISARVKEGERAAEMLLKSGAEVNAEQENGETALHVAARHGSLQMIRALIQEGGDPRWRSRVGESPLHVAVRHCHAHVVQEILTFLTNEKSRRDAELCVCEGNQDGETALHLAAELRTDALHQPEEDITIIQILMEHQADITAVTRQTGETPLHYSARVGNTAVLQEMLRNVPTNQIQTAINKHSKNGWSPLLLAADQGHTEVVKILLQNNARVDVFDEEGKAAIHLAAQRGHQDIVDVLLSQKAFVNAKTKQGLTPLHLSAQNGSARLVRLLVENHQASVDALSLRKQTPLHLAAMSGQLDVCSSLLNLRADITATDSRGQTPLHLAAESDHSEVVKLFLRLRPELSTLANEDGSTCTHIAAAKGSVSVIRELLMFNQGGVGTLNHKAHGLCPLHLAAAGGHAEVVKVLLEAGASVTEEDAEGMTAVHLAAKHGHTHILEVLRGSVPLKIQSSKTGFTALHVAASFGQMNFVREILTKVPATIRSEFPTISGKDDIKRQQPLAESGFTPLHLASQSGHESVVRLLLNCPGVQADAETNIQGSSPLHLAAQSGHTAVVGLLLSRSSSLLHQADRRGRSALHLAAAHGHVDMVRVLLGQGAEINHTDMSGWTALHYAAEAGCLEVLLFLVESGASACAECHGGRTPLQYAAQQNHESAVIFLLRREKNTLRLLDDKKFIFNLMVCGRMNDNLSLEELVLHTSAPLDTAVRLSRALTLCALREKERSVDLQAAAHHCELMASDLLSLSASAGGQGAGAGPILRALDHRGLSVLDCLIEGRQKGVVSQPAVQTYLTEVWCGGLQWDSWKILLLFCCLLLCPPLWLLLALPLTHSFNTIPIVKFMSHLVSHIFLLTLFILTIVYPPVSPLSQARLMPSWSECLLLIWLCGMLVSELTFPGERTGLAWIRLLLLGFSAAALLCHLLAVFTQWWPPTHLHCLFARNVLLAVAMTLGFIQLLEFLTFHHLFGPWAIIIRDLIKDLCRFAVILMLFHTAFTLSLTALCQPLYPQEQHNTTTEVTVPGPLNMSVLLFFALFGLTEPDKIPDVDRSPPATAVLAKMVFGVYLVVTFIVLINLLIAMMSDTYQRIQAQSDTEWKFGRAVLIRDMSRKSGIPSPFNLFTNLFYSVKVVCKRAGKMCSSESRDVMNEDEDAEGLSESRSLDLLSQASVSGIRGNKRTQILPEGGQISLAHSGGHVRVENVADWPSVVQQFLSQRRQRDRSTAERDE
Chain of Voltage-dependent T-type calcium channel subunit alpha-1H (O95180 whole entry): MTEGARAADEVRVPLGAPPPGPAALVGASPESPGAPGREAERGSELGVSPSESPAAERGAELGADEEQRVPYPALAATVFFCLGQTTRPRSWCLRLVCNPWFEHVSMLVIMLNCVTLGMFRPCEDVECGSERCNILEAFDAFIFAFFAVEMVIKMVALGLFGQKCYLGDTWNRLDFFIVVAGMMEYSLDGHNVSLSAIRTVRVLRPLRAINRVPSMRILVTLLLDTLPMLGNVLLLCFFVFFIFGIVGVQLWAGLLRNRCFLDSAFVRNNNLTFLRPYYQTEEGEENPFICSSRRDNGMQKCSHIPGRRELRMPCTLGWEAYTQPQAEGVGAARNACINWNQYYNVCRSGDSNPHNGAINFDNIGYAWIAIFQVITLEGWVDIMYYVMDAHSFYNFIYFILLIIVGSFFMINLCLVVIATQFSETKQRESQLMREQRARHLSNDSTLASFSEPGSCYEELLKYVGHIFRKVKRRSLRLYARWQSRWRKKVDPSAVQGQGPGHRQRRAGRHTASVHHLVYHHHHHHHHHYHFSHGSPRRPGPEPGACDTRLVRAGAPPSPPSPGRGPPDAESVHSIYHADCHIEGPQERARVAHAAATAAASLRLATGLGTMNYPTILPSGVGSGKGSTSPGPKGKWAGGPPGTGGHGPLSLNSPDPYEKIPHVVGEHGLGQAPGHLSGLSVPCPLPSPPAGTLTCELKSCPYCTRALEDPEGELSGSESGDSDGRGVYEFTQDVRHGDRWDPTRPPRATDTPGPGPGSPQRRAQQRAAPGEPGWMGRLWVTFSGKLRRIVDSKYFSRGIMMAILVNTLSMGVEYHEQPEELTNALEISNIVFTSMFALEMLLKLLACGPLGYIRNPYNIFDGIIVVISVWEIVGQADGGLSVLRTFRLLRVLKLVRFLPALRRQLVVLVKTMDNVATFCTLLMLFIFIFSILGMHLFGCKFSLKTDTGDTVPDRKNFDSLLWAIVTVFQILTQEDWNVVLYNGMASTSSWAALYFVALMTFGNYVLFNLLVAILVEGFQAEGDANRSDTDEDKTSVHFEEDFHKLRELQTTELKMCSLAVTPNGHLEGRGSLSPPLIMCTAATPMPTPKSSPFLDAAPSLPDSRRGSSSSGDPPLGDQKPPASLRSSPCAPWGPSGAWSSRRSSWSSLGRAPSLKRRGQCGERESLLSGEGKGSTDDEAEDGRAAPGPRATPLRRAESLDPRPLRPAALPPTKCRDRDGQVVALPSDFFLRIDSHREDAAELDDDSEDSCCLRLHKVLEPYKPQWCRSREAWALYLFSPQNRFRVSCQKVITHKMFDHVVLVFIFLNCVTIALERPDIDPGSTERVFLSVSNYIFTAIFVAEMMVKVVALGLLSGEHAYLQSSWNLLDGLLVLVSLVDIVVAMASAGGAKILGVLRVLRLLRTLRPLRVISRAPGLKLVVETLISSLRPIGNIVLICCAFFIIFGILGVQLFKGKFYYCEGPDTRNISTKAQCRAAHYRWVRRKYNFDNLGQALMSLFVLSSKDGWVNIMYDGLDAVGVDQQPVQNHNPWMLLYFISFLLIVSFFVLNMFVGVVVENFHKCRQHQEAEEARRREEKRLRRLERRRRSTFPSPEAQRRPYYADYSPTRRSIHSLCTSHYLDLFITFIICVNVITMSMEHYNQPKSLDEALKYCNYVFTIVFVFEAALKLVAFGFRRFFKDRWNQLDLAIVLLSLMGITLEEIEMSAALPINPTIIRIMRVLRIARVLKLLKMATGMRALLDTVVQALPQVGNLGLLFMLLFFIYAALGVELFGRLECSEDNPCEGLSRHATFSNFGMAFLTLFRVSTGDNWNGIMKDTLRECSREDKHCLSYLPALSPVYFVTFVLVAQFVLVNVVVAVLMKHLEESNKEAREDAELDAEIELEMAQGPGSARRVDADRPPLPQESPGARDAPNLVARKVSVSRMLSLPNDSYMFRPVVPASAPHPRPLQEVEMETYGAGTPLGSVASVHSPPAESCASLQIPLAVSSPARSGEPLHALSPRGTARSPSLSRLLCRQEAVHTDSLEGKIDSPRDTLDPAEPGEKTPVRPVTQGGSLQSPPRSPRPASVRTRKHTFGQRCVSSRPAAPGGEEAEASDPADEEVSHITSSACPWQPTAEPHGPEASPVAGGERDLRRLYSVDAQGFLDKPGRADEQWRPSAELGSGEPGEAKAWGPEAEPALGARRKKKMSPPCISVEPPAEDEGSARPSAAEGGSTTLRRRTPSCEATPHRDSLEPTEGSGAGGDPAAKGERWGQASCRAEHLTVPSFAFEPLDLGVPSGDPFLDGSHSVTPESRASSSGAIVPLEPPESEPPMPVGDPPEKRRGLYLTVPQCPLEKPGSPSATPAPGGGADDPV
Chain of SUMO-activating enzyme (Q9UBE0 whole entry): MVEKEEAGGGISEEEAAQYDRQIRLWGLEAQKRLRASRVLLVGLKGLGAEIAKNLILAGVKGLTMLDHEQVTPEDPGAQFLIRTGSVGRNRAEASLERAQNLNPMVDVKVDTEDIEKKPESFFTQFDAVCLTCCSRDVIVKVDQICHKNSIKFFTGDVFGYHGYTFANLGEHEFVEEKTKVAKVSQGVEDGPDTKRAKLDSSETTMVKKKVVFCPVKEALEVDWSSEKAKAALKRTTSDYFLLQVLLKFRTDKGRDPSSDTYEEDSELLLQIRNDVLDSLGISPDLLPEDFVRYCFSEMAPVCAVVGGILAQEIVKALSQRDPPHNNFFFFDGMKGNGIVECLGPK
Chain of SUMO-activating enzyme (Q9UBT2 whole entry): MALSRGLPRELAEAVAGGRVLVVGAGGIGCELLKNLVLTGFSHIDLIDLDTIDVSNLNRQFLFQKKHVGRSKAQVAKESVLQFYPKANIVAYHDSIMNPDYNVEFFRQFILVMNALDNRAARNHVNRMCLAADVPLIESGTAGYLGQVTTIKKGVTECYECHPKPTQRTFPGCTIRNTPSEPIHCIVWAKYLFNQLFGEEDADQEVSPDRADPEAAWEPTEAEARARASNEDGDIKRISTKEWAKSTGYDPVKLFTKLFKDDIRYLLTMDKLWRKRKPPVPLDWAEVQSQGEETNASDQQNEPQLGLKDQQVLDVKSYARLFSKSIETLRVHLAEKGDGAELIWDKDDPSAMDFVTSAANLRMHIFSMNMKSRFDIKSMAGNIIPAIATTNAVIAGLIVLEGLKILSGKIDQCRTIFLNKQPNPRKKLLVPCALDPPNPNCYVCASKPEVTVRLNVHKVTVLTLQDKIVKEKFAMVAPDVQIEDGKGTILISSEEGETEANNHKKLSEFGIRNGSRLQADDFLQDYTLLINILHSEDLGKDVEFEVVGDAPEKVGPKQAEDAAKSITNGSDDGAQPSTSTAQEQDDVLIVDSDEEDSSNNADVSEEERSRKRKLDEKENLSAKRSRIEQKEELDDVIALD

Row | Structure (SMILES) | EC50 (Mucolipin-3) | EC50 (Ion channel NompC) | EC50 [3] | further results
1 | O=C1C2C3C=CC(C3)C2C(=O)N1c1ccc(N2CCN(c3ccccn3)CC2)c([N+](=O)[O-])c1 (stereo not given) | > 29.9 µM (not active) | > 29.9 µM (not active) | – | AC50 [1]: 0.619 µM (active)
2 | COC(=O)c1cnc(N2CCCN(S(=O)(=O)c3ccccc3)CC2)nc1C(F)(F)F | > 29.9 µM (not active) | > 29.9 µM (not active) | – | –
3 | Cc1oc(-c2ccc(Cl)cc2)nc1CN1CCC(C(=O)NCc2cccs2)CC1 | – | – | 1.5 µM (active) | EC50 [2]: 4.32 µM (active)
4 | CN(C)CCCN(C(=O)c1ccc(S(=O)(=O)N2CCCC2)cc1)c1nc2c(F)cc(F)cc2s1 | – | – | 3.76 µM (active) | –
5 | Cc1cccc(NC(=O)/C(C#N)=C/c2cn(CC(=O)NCc3ccco3)c3ccccc23)c1C | – | – | – | IC50 (SUMO-activating enzyme): 36.2 µM (active); Absolute IC50 (XBP1) (X-box-binding protein 1): < 10 µM
